In US11046657B2, “Pyrimidinone derivatives and uses thereof to neutralize the biological activity of chemokines” (Centre National de la Recherche Scientifique (CNRS), priority 2016, dated 2021):
Where a name gives a salt, the structure may show the parent alone.

Target: T1, CXCR4-CXCL12 binding (Homo sapiens, UniProt P48061)
T1 construct: expressed in transfected cells
Test: Inhibition of CXCL12-TR binding to CXCR4-GFP (FRET)
Details: 10 μM; Table 2
Protocol: Study of the changes of CXCR4-CXCL12 binding was achieved by the energy transfer technique^10,11.
Binding of Texas red-labelled CXCL12 with CXCR4-GFP fused receptor^11 induces fluorescence resonance energy transfer (FRET), which can be monitored by the reduction of GFP fluorescence emission. The characterization of CXCL12 neutraligands was evaluated in two conditions, differing by the sequence of addition of molecules. Reduction of GFP fluorescence emission was more important when neutraligands were preincubated (30 min) […] prior to the addition to cells.
The CXCR4 antagonist, T134 (20 μM) was used as a control in both incubation protocols. Data obtained were consistent with a binding to the chemokine and not to its receptor. Consequently, all selected compounds are indeed CXCL12 chemokine neutraligands and behave as chalcone-4. The neutralizing properties of the compounds are thus confirmed.

T1 sequence (P48061 22-89 limits assumed): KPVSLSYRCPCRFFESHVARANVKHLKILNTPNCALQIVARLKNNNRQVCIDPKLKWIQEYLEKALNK

SMILES | inhibition at 10 µM [%]
COc1ccc(-c2cc(-c3ccc(O)c(OC)c3)[nH]c(=O)n2)cc1 [(2), 4-(4-methoxyphenyl)-6-(4-hydroxy-3-methoxyphenyl)-pyrimidin-2(1H)-one] | 96 ± 3
COc1cc(-c2cc(-c3ccc(O)cc3)nc(=O)[nH]2)ccc1O [(3), 4-(4-hydroxyphenyl)-6-(4-hydroxy-3-methoxyphenyl)-pyrimidin-2(1H)-one] | 53 ± 6
COc1cc(-c2cc(-c3ccc(C(C)C)cc3)nc(=O)[nH]2)ccc1O [(4), 4-(4-isopropylphenyl)-6-(4-hydroxy-3-methoxyphenyl)-pyrimidin-2(1H)-one] | 35 ± 4
COc1cc(-c2cc(-c3ccc(F)cc3)nc(=O)[nH]2)ccc1O [(5), 4-(4-fluorophenyl)-6-(4-hydroxy-3-methoxyphenyl)pyrimidin-2(1H)-one] | 46 ± 4
COc1cc(-c2cc(-c3ccccc3Cl)nc(=O)[nH]2)ccc1O [(7), 4-(2-chlorophenyl)-6-(4-hydroxy-3-methoxyphenyl)pyrimidin-2(11H)-one] | 62 ± 5
COc1cc(-c2cc(-c3ccccc3)nc(=O)[nH]2)ccc1O [(8), 4-(phenyl)-6-(4-hydroxy-3-methoxyphenyl)-pyrimidin-2(1H)-one] | 46 ± 8
O=c1nc(-c2ccc(Cl)cc2)cc(-c2ccc(O)c(OC(F)(F)F)c2)[nH]1 [(9), 4-(4-chlorophenyl)-6-(4-hydroxy-3-(trifluoromethoxy)phenyl)pyrimidin-2(1H)-one] | 52 ± 10
COc1ccc(-c2cc(-c3ccc(Cl)cc3)nc(=O)[nH]2)cc1O [(10), 4-(4-chlorophenyl)-6-(3-hydroxy-4-methoxyphenyl)pyrimidin-2(1H)-one] | 39 ± 7
O=c1nc(-c2ccc(Cl)cc2)cc(-c2ccc(O)cc2)[nH]1 [compound (A), 4-(4-chlorophenyl)-6-(4-hydroxyphenyl)pyrimidin-2(1H)-one, reference compound] | 4.3 ± 3
O=c1nc(-c2ccc(Cl)cc2)cc(-c2ccccc2)[nH]1 [compound (B), 4-(4-chlorophenyl)-6-phenylpyrimidin-2(1H)-one, reference compound] | 19 ± 7
COc1cccc(-c2cc(-c3ccc(Cl)cc3)nc(=O)[nH]2)c1 [compound (C), 4-(4-chlorophenyl)-6-(3-methoxyphenyl)pyrimidin-2(1H)-one, reference compound] | 10 ± 5

Same assay, conditions: 10 μM; Table 3

SMILES | inhibition at 10 µM [%]
COc1cc(-c2cc(-c3ccc(O)c(C)c3)nc(=O)[nH]2)ccc1O [(59)] | 83 ± 2
COc1ccc(-c2cc(-c3ccc(Cl)cc3)nc(=O)[nH]2)cc1OC [(D), 4-(4-chlorophenyl)-6-(4-methoxy-3-methoxyphenyl)pyrimidin-2(1H)-one, reference compound] | 26 ± 1
COc1ccc(-c2cc(-c3ccc(O)c(C)c3)nc(=O)[nH]2)cc1OC [(E), 4-(4-hydroxy-3-methylphenyl)-6-(4-methoxy-3-methoxyphenyl)pyrimidin-2(1H)-one, reference compound] | 1.8 ± 0.7

Same assay, conditions: 10 μM; Table 4

SMILES | inhibition at 10 µM [%]
COc1cc(-c2cc(-c3ccco3)nc(=O)[nH]2)ccc1O [(28), 4-(furan-2-yl)-6-(4-hydroxy-3-methoxyphenyl)pyrimidin-2(1H)-one] | 44 ± 1
COc1cc(-c2cc(-c3ccc(Cl)s3)nc(=O)[nH]2)ccc1O [(33), 4-(5-chlorothiophen-2-yl)-6-(4-hydroxy-3-methoxyphenyl)pyrimidin-2(1H)-one] | 58 ± 15
COc1cc(-c2cc(-c3ccc[nH]3)nc(=O)[nH]2)ccc1O [(60)] | 53 ± 14

Same assay, conditions: deduced from comparative examples

SMILES | Affinity for CXCL12 (SAR)
O=c1nc(-c2ccc(Cl)cc2)cc(-c2ccc(O)cc2)[nH]1 [compound (A), 4-(4-chlorophenyl)-6-(4-hydroxyphenyl)pyrimidin-2(1H)-one, reference compound] | loss of affinity
COc1cccc(-c2cc(-c3ccc(Cl)cc3)nc(=O)[nH]2)c1 [compound (C), 4-(4-chlorophenyl)-6-(3-methoxyphenyl)pyrimidin-2(1H)-one, reference compound] | loss of affinity

Tested on: not given
Test: not given
Details: not given

SMILES | melting point [°C]
COc1cc(-c2cc(-c3ccc(N4CCNCC4)cc3)nc(=O)[nH]2)ccc1O.Cl | 117 to 124
Cl.NCCOc1cc(-c2cc(-c3ccc(Cl)cc3)nc(=O)[nH]2)ccc1O | 272 to 276
COc1cc(-c2cc(-c3ccc(N(C)C)nc3)nc(=O)[nH]2)ccc1O.Cl | 257 to 260
COc1cc(-c2cc(-c3ccc(N4CCN(C)CC4)cc3)nc(=O)[nH]2)ccc1O (as salt: hydrochloride) | 300 to 303
COc1cc(-c2cc(-c3ccc(Cl)cc3)nc(=O)[nH]2)ccc1C(=O)O [(27), 4-(6-(4-chlorophenyl)-2-oxo-2,3-dihydropyrimidin-4-yl)-2-methoxybenzoic Acid] | 257 to 261
